Experimental data as given in patent CN114306299A, “贝利司他在制备缓解和/或治疗缺血性脑卒中药物中的应用” (Institute of Materia Medica of CAMS and PUMC, priority 2020, dated 2022).

Legend:
MCAO/R rats (MCAO/R大鼠) [1] = assay: Neurological function score (mNSS) in MCAO/R rats 24 h after reperfusion (1.3); assay type: in vivo, rat; conditions: i.p. at reperfusion; for mNSS score vs. model group: **P<0.01 vs. model group, n=7~11
MCAO/R rats (MCAO/R大鼠) [2] = assay: Recovery of neurological function (mNSS) in MCAO/R rats, days 1, 3, 7, 14 (2.3)
MCAO/R rats (MCAO/R大鼠) [3] = assay: Foot-fault test in MCAO/R rats, days 1, 3, 7, 14 (2.4); conditions: from day 7; treated groups (10, 30, 50 mg/kg), once daily for 14 days from 24 h after reperfusion; *P<0.05, **P<0.01 vs. model group; n=6~9
[4] = tested on: certain transformed cells (某些转化细胞); conditions: in vitro, nanomolar concentration (<250nM); cited from earlier work
tumor cells (肿瘤细胞) = conditions: cited from earlier work
MCAO/R rats (MCAO/R大鼠) [5] = assay: TTC staining of cerebral infarct volume in MCAO/R rats, 24 h after reperfusion (1.2); assay type: in vivo, rat; conditions: i.p. at reperfusion; for cerebral infarct volume vs. model group: **P<0.01 vs. model group, n=7~11
[6] = tested on: histone deacetylase, HDAC (组蛋白去乙酰化酶, HDAC); conditions: in vitro; cited from earlier work
MCAO/R rats (MCAO/R大鼠) [7] = assay: Survival rate of MCAO/R rats, 14-day dosing (2.2); assay type: in vivo, rat; conditions: treated groups (10, 30, 50 mg/kg); dosing from 24 h after reperfusion, once daily for 14 days; n=9~18; compared with model group (low survival)
[8] = treated subjects in clinical studies; cited from earlier work

For `O=C(/C=C/c1cccc(S(=O)(=O)Nc2ccccc2)c1)NO` [贝利司他], the “neurological motor function score vs. model group” value (MCAO/R rats (MCAO/R大鼠) [1]; dose group not named) was “显著降低”, the “mNSS score vs. model group” value (MCAO/R rats (MCAO/R大鼠) [1]; high dose 50 mg/kg) was “显著低于模型组” and the “mNSS score vs. model group” value (MCAO/R rats (MCAO/R大鼠) [1]; medium dose 30 mg/kg) was “显著低于模型组”. The “mNSS score vs. model group” value (MCAO/R rats (MCAO/R大鼠) [2]; from day 3, treated groups (10, 30, 50 mg/kg), once daily for 14 days from 24 h after reperfusion, *P<0.05, **P<0.01 vs. model group, n=6~9) was “显著低于模型组”, the neurological motor function (MCAO/R rats (MCAO/R大鼠) [2]; treated groups, with increasing time of administration (once daily for 14 days)) was “神经运动功能恢复” and the “foot-fault rate vs. model group” value (MCAO/R rats (MCAO/R大鼠) [3]) was “明显降低”. For the same compound, the “accumulation of acetylated histones and other proteins” value [4] was “可致乙酰化组蛋白及其他蛋白积聚”, the “cell cycle arrest or apoptosis of certain transformed cells” value [4] was “诱导细胞周期停滞或某些转化细胞凋亡” and the “cytotoxicity to tumor cells compared with normal cells” value (tumor cells (肿瘤细胞)) was “强于正常细胞”. For the same compound, the “infarct volume vs. model group” value (MCAO/R rats (MCAO/R大鼠) [5]; dose group not named) was “能够减少MCAO/R大鼠的梗死体积”, the “cerebral infarct volume vs. model group” value (MCAO/R rats (MCAO/R大鼠) [5]; high dose 50 mg/kg) was “显著降低” and the “cerebral infarct volume vs. model group” value (MCAO/R rats (MCAO/R大鼠) [5]; medium dose 30 mg/kg) was “显著降低”. The “concentration at which HDAC activity is inhibited” value [6] was less than 250 nM, the survival rate (MCAO/R rats (MCAO/R大鼠) [7]) was “明显增高” and the “most common side effects” value [8] was “恶心、呕吐、乏力、发热和贫血”.
